Results reported in publication PMC7108927, “TYK2 inhibition reduces type 3 immunity and modifies disease progression in murine spondyloarthritis” (The Journal of Clinical Investigation, 2020).
pIC50: −log10 of the molar value.

Legend:
Assay in all cases: radiometric kinase assay with peptide substrate
Type in all cases: biochemical
TYK2 = TYK2 (Homo sapiens, UniProt P29597)
JAK2 = JAK2 (Homo sapiens, UniProt O60674)
JAK1 = JAK1 (Homo sapiens, UniProt P23458)
JAK3 = biological target: T1, JAK3 (Homo sapiens, UniProt P52333)
T1 sequence (P52333 1-1124): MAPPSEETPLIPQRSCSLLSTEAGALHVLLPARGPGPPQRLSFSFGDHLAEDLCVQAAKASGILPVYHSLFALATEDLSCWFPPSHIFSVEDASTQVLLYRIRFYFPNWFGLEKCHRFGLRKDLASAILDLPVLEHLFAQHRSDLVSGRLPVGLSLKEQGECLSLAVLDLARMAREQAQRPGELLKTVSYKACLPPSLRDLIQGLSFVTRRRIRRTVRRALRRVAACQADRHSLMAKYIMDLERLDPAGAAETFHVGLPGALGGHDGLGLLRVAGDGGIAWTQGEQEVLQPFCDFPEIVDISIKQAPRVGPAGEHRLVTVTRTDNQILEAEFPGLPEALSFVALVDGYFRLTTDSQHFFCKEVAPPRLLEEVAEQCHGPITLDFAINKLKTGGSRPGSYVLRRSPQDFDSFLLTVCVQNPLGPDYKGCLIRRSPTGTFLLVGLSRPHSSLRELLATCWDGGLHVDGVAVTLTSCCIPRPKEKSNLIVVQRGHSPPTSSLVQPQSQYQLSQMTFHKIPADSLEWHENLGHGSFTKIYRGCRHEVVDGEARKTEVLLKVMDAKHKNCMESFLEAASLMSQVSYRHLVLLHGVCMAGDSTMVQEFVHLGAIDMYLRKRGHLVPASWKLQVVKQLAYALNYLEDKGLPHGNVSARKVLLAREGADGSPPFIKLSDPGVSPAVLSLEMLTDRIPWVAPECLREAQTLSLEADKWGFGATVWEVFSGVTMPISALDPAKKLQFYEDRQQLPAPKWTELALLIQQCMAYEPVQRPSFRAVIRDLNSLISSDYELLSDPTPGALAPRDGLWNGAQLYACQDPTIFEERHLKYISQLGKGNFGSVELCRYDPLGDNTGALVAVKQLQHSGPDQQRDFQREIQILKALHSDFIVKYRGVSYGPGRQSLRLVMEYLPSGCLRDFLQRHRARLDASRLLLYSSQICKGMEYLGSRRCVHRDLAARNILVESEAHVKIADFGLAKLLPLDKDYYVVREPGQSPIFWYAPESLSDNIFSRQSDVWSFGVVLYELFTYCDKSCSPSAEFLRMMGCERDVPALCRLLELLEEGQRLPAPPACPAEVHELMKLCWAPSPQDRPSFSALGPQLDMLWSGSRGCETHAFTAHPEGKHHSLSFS

TYK2, sequence (P29597 whole entry): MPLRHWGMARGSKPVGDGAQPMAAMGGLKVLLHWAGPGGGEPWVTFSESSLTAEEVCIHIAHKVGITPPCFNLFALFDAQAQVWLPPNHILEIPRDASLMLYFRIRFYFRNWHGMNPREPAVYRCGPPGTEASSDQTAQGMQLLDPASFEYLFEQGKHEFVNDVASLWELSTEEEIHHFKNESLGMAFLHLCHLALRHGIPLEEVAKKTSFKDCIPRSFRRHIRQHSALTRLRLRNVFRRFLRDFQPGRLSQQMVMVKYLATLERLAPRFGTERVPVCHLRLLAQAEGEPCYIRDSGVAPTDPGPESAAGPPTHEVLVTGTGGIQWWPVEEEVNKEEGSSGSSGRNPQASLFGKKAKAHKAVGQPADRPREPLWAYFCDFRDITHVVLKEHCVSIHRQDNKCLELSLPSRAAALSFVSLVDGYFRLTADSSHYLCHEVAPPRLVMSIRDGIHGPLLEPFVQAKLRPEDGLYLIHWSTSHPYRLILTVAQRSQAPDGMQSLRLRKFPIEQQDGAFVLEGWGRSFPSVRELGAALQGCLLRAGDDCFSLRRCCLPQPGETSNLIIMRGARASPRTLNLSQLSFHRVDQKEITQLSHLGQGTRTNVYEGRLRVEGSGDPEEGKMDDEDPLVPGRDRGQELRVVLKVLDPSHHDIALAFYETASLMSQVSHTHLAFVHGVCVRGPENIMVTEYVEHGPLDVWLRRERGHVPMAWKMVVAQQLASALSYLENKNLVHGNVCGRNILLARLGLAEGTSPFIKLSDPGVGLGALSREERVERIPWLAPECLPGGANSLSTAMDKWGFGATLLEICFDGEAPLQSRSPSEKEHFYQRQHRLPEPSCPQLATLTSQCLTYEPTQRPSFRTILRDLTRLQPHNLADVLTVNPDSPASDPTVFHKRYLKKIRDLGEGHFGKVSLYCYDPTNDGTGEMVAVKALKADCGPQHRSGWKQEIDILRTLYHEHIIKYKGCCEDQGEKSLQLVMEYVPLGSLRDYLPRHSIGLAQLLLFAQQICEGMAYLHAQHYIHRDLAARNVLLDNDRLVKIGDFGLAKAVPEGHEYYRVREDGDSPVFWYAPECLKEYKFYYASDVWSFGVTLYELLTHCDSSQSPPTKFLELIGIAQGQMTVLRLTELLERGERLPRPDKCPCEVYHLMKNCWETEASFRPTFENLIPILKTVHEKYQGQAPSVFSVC
JAK2, sequence (O60674 whole entry): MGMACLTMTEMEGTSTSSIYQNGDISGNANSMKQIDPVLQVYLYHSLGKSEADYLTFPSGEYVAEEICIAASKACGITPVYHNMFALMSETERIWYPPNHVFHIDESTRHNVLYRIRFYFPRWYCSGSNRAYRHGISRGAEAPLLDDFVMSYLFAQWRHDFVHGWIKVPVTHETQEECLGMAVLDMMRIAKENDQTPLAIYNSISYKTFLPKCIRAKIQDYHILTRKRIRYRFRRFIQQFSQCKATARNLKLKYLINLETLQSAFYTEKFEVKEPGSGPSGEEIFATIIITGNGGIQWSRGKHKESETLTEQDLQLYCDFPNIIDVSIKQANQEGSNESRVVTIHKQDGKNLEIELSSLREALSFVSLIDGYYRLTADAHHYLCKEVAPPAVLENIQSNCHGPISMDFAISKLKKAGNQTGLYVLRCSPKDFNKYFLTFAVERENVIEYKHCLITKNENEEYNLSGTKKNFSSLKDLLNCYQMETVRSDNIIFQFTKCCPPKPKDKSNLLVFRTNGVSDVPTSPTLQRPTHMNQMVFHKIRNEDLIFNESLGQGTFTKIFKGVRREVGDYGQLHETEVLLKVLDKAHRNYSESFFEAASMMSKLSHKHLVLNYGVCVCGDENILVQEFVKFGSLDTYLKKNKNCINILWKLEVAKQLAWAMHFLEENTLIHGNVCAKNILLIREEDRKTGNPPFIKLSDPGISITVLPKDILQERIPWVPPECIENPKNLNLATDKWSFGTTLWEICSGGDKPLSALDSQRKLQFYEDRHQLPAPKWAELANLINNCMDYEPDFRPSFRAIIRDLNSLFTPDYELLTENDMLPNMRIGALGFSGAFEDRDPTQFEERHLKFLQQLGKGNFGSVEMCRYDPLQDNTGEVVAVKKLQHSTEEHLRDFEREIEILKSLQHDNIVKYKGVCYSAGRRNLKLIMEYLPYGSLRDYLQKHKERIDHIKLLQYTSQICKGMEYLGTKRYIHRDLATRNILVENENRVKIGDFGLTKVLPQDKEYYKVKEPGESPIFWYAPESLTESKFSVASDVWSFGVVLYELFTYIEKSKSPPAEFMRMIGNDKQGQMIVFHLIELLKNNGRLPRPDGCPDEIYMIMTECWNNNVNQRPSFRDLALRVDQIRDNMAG
JAK1, sequence (P23458 whole entry): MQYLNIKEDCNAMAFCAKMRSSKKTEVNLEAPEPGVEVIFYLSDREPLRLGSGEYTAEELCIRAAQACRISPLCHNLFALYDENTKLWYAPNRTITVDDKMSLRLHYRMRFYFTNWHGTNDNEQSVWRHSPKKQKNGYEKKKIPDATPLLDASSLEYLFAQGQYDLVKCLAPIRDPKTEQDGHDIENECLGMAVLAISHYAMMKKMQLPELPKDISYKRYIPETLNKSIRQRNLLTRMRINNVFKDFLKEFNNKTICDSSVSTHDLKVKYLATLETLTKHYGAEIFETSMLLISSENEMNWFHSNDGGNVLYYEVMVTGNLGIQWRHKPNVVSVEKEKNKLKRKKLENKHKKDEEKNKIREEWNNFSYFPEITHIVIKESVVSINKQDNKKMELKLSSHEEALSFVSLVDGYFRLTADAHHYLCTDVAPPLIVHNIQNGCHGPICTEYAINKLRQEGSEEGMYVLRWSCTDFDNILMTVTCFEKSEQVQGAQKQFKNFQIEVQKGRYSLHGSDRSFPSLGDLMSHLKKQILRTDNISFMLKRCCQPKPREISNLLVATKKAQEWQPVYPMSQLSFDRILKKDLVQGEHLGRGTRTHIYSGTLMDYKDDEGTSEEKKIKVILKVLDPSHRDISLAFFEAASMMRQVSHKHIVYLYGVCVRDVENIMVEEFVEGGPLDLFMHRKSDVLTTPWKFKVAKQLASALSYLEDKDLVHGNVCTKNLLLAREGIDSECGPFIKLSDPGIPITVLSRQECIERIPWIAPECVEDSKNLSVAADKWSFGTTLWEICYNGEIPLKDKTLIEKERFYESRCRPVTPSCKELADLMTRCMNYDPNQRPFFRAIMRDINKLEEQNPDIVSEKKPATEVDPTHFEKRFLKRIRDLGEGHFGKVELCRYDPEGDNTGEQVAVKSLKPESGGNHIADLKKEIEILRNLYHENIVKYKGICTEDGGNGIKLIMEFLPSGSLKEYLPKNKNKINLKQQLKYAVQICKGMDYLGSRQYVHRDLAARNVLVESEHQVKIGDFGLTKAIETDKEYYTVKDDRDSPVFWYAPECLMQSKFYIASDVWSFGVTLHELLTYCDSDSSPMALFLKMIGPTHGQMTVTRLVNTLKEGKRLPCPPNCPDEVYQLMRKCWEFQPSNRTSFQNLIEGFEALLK

- pIC50 (TYK2): 9.68
- pIC50 (JAK2): 7.51
- pIC50 (JAK1): 7.34
- pIC50 (JAK3): 8.38
Substance: NDI-031407
